Assay results reported in patent US12610947B2, “Tobacco axillary bud growth inhibitors and methods of inhibiting growth of tobacco axillary buds” (Drexel Chemical Company, priority 2020, dated 2026).

Columns and labels:
TH241 tobacco = assay: Example 3 plot study: phytotoxicity on a scale of 0 to 5; type: in vivo; details: for Phytotoxicity: scale of 0 to 5
Method: (§1) A third study was conducted comparing the effects of various treatment compositions on TH241 tobacco. The study was designed in random blocks. Each test plot was formed by two rows of ten tobacco plants. Each treatment was applied to three separate plots. […] The first application was performed when the first axillary shoots were observed. Additional applications were performed when new axillary shoots were observed. Shoots longer than 3 cm were manually removed at the time of each application. The applications were performed using a manual backpack sprayer, spraying at a low pressure above the plant toward the stalk so that the composition ran down the stalk, contacting the leaf axils. Approximately 13 to 26 milliliters of composition were applied to each plant. The phytotoxicity of the treatment compositions was assessed and recorded on a scale of 0 to 5 based on visible symptoms. The number and size of the axil shoots was recorded every 7 to 14 days following the initial treatment application. Axillary shoots were assigned a level according to their length. Shoots less than 3 cm in length were assigned to level 1. Shoots between 3 and 15 cm were assigned to level 2. Shoots between 15 and 30 cm were assigned to level 3. Shoots between 30 and 45 cm were assigned to level 4. Shoots between 45 and 60 cm were assigned to level 5. And shoots greater than 60 cm were assigned to level 6. An estimated average length of shoots in each plot could then be calculated according to the number of shoots assigned to each level.
Phytotoxicity was assessed 9 days and 26 days after the first application of each treatment. […] Only mild symptoms of phytotoxicity were observed on the remaining plants. […] The phytotoxicity was likely more apparent due to the fact that by day 26, two pelargonic acid treatments had already been performed. […] No further evaluations were carried out.

tobacco = assay: Example 4 (Farm A and Farm B): phytotoxicity on a scale of 0 to 5; details: in vivo
Method: (§2) A fourth study was conducted simultaneously by two separate farms (designated Farm A and Farm B) to further assess the effectiveness of the various treatments including under varying conditions.
The overall study was designed in random blocks. The treatments utilized were Biosucker, Bioantak (37 DOT), Antak-68.5, Beloukha, Sharpen 33%, and a control treatment that was untreated. On each farm, each test plot was formed by a single line of 20 plants. Each treatment was applied to three separate plots on each farm. […] The first application was applied when the first axillary shoots were observed. Additional applications were applied when the new axillary shoots were observed. Shoots longer than 3 cm were manually removed at the time of each application. The applications were performed using a manual backpack sprayer, spraying at a low pressure above the plant toward the stalk so that the composition ran down the stalk, contacting the leaf axils. Approximately 20 milliliters of composition were applied to each plant. The phytotoxicity of the treatment compositions was assessed and recorded on a scale of 0 to 5 based on visible symptoms. The number and size of the axil shoots was recorded every 6 to 8 days following the initial treatment application. […] An estimated average length of shoots in each plot could then be calculated according to the number of shoots assigned to each level. […]

[1] = system: axillary shoots of tobacco; assay: Example 4 (Farm A and Farm B): axillary shoot length, effectiveness vs non-treated control, effective period; type: in vivo; details: Farm A, before second application
Method: as §2
The overall study was designed in random blocks. The treatments utilized were Biosucker, Bioantak (37 DOT), Antak-68.5, Beloukha, Sharpen 33%, and a control treatment that was untreated. On each farm, each test plot was formed by a single line of 20 plants. Each treatment was applied to three separate plots on each farm. […] The first application was applied when the first axillary shoots were observed. Additional applications were applied when the new axillary shoots were observed. Shoots longer than 3 cm were manually removed at the time of each application. […] The phytotoxicity of the treatment compositions was assessed and recorded on a scale of 0 to 5 based on visible symptoms. The number and size of the axil shoots was recorded every 6 to 8 days following the initial treatment application. […] An estimated average length of shoots in each plot could then be calculated according to the number of shoots assigned to each level.
The results of the length of axillary shoots measured at Farm A and Farm B are shown in Table 15 and Table 16, respectively. […]
The effectiveness of each treatment method and each farm was calculated as compared to the non-treated control group.

[2] = system: axillary shoots of TH241 tobacco; assay: Example 3 plot study: axillary shoot length and effectiveness vs non-treated control; type: in vivo; details: for Axillary Shoot Length Results: level assigned by shoot length; for Axillary Shoot Length Results / Effectiveness Results: dosage and applications per Table 8; for Effectiveness Results: compared to the non-treated control group; for Effectiveness: compared to non-treated control
Method: as §1, with “level. […] For this reason, treatments 1, 3, 4, and 5 were applied three times; treatments 2, 6, and 7 were applied twice; and treatments 8 and 9 were applied only once. The effectiveness of each treatment method was calculated as compared to the non-treated control group.” for “level.”

## CCCCCCCCC(=O)O [Pelargonic acid, pelargonic acid]
TH241 tobacco; August 12, D + 26 days
  Phytotoxicity: 2.0 B
TH241 tobacco; August 21, after a third application
  symptoms of phytotoxicity: symptoms of phytotoxicity were still more pronounced
TH241 tobacco; July 26, D + 9 days
  Phytotoxicity: 1.6 C
tobacco
  phytotoxicity symptoms: highest levels of burns and deformation
[1]
  day until which shoot length was the same as the standard treatment: 27 days
[2]; 5-Aug, D + 19 days
  Axillary Shoot Length Results: 1.3 Cd
[2]; 12-Aug, D + 26 days
  Axillary Shoot Length Results: 2.6 C
[2]; 21-Aug, D + 35 days
  Axillary Shoot Length Results: 1.2 Abc
[2]; 26-Jul, D + 9 days
  Axillary Shoot Length Results: 1.2 C
[2]; 29-Aug, D + 43 days
  Axillary Shoot Length Results: 2.3 bcde
[2]; Aug 5, D + 19 days
  Effectiveness Results: 61%
[2]; Aug 12, D + 26 days
  Effectiveness Results: 37%
[2]; Aug 21, D + 35 days
  Effectiveness Results: 80%
[2]; Aug 29, D + 43 days
  Effectiveness Results: 61%
[2]; July 26, D + 9 days
  Effectiveness Results: 39%
[2]; Oct. 10, D + 85 days
  Effectiveness: 8%
  Axillary Shoot Length Results: 5.5 B
[2]; Sept. 11, D + 56 days
  Effectiveness Results: 35%
  Axillary Shoot Length Results: 3.9 C
[2]; Sept. 24, D + 69 days
  Effectiveness Results: 16%
  Axillary Shoot Length Results: 5.1 C
[2]; Sept. 30, D + 75 days
  Effectiveness: 9%
  Axillary Shoot Length Results: 5.4 B
[2]; after only 9 days
  shoot length: ~3 cm
